Experimental data from publication PMC6910946, “Multiple roles of Bet v 1 ligands in allergen stabilization and modulation of endosomal protease activity” (Allergy, 2019).
Where two headings read alike, the source gives them in different places.

How the values were obtained:
[1] = molecular target: T1, Bet_v_1 (Betula pendula, UniProt P15494); assay: Thermal stability and secondary structure of Bet v 1 by circular dichroism (CD); format: physicochemical, Betula verrucosa; conditions: for ΔCD: change of Tm of Bet v 1 versus no ligand; for increased melting point (T m) of Bet v 1 bound to ligand: CD and FTIR spectroscopy
T1 construct: made in house
T1 sequence (P15494 1-160): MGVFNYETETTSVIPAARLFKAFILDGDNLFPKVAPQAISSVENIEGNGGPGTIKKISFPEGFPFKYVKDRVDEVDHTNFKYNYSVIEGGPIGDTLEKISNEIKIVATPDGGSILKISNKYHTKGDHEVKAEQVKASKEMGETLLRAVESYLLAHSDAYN
Excerpt: (§1) Surface acoustic wave (SAW) technology and NMR spectroscopy were used to observe the interaction of Bet_v_1 with the selected compounds, including determination of the dissociation constant (K d). The influence of ligand binding on the secondary structure elements and the thermal stability of Bet_v_1 was monitored using circular dichroism (CD, JASCO J‐815 spectropolarimeter, Jasco) and Fourier transform infrared (FTIR) spectroscopy (Tensor II FTIR system, Bruker Optics Inc). A detailed description of these methods is available (Appendix [Link], [Link]).
(§2) The influence of ligand binding on the secondary structure elements and the thermal stability of Bet v 1 was addressed by circular dichroism (CD) and Fourier transform infrared (FTIR) spectroscopy. CD spectroscopy was performed with a JASCO J-815 spectropolarimeter fitted with a PTC-423S Peltier-type single position cell holder (Jasco, Tokyo, Japan) over the wavelength range 190 to 260 nm. For measurement, Bet v 1 with and without ligand was diluted in a 10 mM potassium phosphate buffer to a concentration of 0.1 mg/ml. The thermal stability analysis was recorded at 222 nm. The protein was denatured with a temperature slope of 1°C/min from 20 to 95°C.

[2] = molecular target: T1, Bet_v_1; assay: Thermal stability of Bet v 1 by FTIR spectroscopy; format: physicochemical, Betula verrucosa; conditions: for ΔFTIR: change of Tm of Bet v 1 versus no ligand; for T m FTIR: melting point of Bet v 1 with or without ligand
Excerpt: as §1, with “[Link]). […]” for “[Link]).”
Determination of secondary structure elements and thermal stability
as §2, with “1° C/min” for “1°C/min”, “95° C.” for “95°C.”
FTIR amide 1 and amide 2 spectra of Bet v 1 at concentrations of 1.0-2.0 mg/ml with and without ligand were recorded with an AquaSpec transmission cell adapted to a Tensor II FTIR system (Bruker Optics Inc., Billerica, MA, USA). Measurement was performed at a constant temperature (25° C), controlled by a Haake F8 thermostat (Thermo Electron, Germany) with internal temperature control. For data analysis, OPUS spectroscopy software 6.0 (Bruker Optics Inc., Billerica, MA, USA) was used. The Savitzky-Golay algorithm was applied on […]
vector-normalized amide 1 spectra (25 smoothing points) to obtain the second derivative. For the quantification of secondary structure elements, a Quant2 method of the OPUS software was used. For thermal stability analysis, spectra were recorded with a BioATR II unit (Bruker Optics Inc., Billerica, MA, USA) at 25 to 95° C (dT=2.5K). The determined relative signal change in the amide I band by creating a difference spectrum for each temperature point was used to calculate the melting point (Tm). […]

[3] = molecular target: T2, Bet v 1 / human cathepsin S (Betula pendula, UniProt P15494); assay: Bet v 1 in vitro proteolytic degradation assay with cathepsin S; format: biochemical; conditions: for processing (degradation) of Bet v 1 by cathepsin S: Bet v 1 20 µM, ligand 100 µM, cathepsin S 1 µM, pH 5.0, 0-24 h, SDS-PAGE
T2 construct: made in house
T2 sequence (P15494 2-160 limits assumed): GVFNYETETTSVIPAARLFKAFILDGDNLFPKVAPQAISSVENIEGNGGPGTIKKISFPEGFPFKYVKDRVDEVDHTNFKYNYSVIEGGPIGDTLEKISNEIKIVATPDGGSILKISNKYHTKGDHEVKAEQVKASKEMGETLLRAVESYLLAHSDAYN
Experimental: (§3) The endolysosomal degradation assay was performed with ligand‐bound (either DOC, PPE1, or Q3OS in 10× molar excess) and Bet_v_1 without ligands (apo‐Bet_v_1) as previously described.21 Recombinant human cathepsin S and human legumain were used in proteolytic degradation assays. Experimental details are described in the Appendix [Link], [Link].
(§4) Recombinant human cathepsin S and human legumain were heterologously expressed and purified as described previously.^9,10 Bet v 1 (20 µM) was incubated with ligand (100 µM) in digestion buffer (0.1 M sodium acetate, pH 5.0, 0.1 M sodium chloride, 5 mM EDTA, and 2 mM DTT) at room temperature prior to the addition of cathepsin S (1 µM) or legumain (2 µM). […] At each time point, the reaction was halted by the addition of E64 (for cathepsin S) or YVAD-CMK (for legumain) at a final concentration of 50 µM, and analyzed by SDS-PAGE. Control reactions without the addition of protease were performed. The generated peptides were analyzed using mass spectrometry.

[4] = molecular target: T3, Bet v 1 / human legumain (Betula pendula, UniProt P15494); assay: Bet v 1 in vitro proteolytic degradation assay with legumain; format: biochemical
T3 construct: made in house
T3 sequence (P15494 2-160 limits assumed): T2 sequence (P15494 2-160 limits assumed)
Experimental: as §3, §4

[5] = melting point of Bet v 1 with or without ligand, 222 nm
[6] = relative abundance of peptides by mass spectrometry

SMILES	secondary structure content of Bet v 1 ([1]; CD and FTIR, Figure S4)	ΔCD [1]	T m CD [1, 5]	ΔFTIR [2]	T m FTIR [2]	increased melting point (T m) of Bet v 1 bound to ligand [1]	processing (degradation) of Bet v 1 by cathepsin S [3]	Bet v 1 cleavage site frequency with cathepsin S [3, 6]	Bet v 1 cleavage site frequency with legumain [4, 6]	T m CD [1]	secondary structure content of Bet v 1 [1]	processing (degradation) of Bet v 1 by legumain ([4]; Bet v 1 20 µM, ligand 100 µM, legumain 2 µM, pH 5.0, 0-24 h, SDS-PAGE)
O=c1c(O[C@@H]2O[C@H](CO)[C@@H](O)[C@H](O)[C@H]2O[C@@H]2O[C@H](CO)[C@@H](O)[C@H](O)[C@H]2O)c(-c2ccc(O)c(O)c2)oc2cc(O)cc(O)c12 [Q3OS, quercetin 3‐O‐sophoroside]	did not significantly alter its secondary structure content	+0.36 °C	64.04 °C	+1.88 °C	65.26 °C	–	–	–	–	–	–	–
CCC1C(=O)CC(O)C1/C=C/C(O)CCCCCCCC(=O)O (stereo not drawn) [PPE1, E1 phytoprostanes]	did not significantly alter its secondary structure content	+6.94 °C	70.62 °C	+5.93 °C	69.31 °C	~7 °C	strongly retarded	preferential cleavage was observed after Phe20, Lys21, and in the C‐terminal region	cleavage frequency after Asn120 and Asp157 strongly increased	–	–	–
C[C@H](CCC(=O)O)[C@H]1CC[C@H]2[C@@H]3CC[C@@H]4C[C@H](O)CC[C@]4(C)[C@H]3C[C@H](O)[C@]12C [DOC, sodium deoxycholate, reference compound]	–	–	–	+3.22 °C	66.6 °C	approximately 4 °C	strongly retarded	–	–	67.44 °C	did not significantly alter its secondary structure content	strongly retarded
